# Laboratory results reported in ChEMBL document CHEMBL1201862, “PubChem BioAssay data set” (2004).
# Active and inactive are the calls of the source. Rule as the data show it, for most assays here: actives have a measured AC50 and inactives only a lower limit.
# Test system: INS1
# Test: INS-1E survival protection against cytokine death – cell-based, luminescence, retest, dose response (AID 449756);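 also: cell death triggered by IL-1 beta plus TNF-alpha plus IFN-gamma mixture; protective hits raise ATP signal compared with cytokine alone wells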
# Format: functional
# Settings: Rattus norvegicus
row,SMILES,AC50
1,Cc1ccccc1N=C(S)Nc1cccc2cnccc12,> 260 µM (inactive)
2,Cc1ccc(C)c(-c2csc(NC(=O)C3=COCCO3)n2)c1,7.19 µM (active)
3,C/C(=N\NC(N)=S)c1ccncc1,> 260 µM (inactive)

# Target: T1, Corticotropin-releasing factor receptor 2/Corticotropin-releasing factor-binding protein (Homo sapiens, UniProt P24387+Q13324)
# T1 sequence (Q13324 whole entry): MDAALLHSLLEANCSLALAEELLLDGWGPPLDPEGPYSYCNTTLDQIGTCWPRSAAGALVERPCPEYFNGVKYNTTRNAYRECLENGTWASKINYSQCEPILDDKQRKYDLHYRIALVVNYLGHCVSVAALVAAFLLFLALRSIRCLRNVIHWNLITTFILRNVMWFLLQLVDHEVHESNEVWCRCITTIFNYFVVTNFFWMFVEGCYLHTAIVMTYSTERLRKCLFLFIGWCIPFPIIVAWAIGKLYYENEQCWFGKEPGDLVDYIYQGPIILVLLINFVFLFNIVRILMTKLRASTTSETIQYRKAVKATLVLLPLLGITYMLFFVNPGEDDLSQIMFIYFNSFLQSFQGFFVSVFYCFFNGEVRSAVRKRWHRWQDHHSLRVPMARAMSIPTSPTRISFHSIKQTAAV
# T1 sequence (P24387 whole entry): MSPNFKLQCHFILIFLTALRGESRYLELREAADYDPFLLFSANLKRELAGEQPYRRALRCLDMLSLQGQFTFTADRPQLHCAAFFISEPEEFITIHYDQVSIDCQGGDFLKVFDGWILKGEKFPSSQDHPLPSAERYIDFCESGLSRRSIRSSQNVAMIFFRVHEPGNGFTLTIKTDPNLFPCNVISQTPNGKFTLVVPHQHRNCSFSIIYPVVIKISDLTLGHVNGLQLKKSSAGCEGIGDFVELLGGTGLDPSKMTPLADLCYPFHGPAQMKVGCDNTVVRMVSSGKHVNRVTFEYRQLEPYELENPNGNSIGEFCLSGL
# Test: Dose Response confirmation of uHTS hits for small molecule antagonists of the CRF-binding protein and CRF-R2 receptor complex.
# Format: functional
# Settings: read-out: IC50_Mean
row,IC50,SMILES
1,> 47.1 µM (inactive),CC(=O)Nc1ccc(S(=O)(=O)N2CCN(c3nnnn3-c3ccccc3)CC2)cc1
2,> 47.1 µM (inactive),Cc1c(N2C(=O)C3C4C=CC(C5CC45)C3C2=O)c(=O)n(-c2ccccc2)n1C (centres undefined)
3,> 47.1 µM (inactive),Cc1ccc(CN(C)C(=O)CCc2c[nH]c3ccccc23)o1
4,> 47.1 µM (inactive),COc1ccc(C)cc1S(=O)(=O)N1CCN(S(=O)(=O)c2cc(C)ccc2OC)CC1
5,> 47.1 µM (inactive),COC(=O)C1=C(C)N(C)C(C)=C(C(=O)OC)C1c1ccc(F)c(Br)c1

# Test system: not listed separately
# Test: reduction of Shn3 3'UTR-driven luciferase in osteoblasts – cell-based, Clone20 osteoblasts, firefly luciferase, cherry-picked, dose response (AID 624132);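 also: firefly luciferase luminescence from reporter carrying the Shn3 3'UTR in osteoblasts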
# Format: functional
# Settings: not given
row,SMILES,AC50
1,O=C(NNC(=O)c1cccc(S(=O)(=O)N2CCc3ccccc32)c1)c1ccccc1,1.52 µM (active)
2,CC(=O)N1CCN(C(=O)CCc2cc(C(C)(C)C)c(O)c(C(C)(C)C)c2)CC1,4.46 µM (active)
3,CC1C(=O)N(Cc2cn(CCC3OCCCO3)nn2)CCS(=O)(=O)N1Cc1ccc(-c2ccc(Cl)c(Cl)c2)cc1 (centres undefined),3.39 µM (active)
4,C[C@H](NC(=O)c1ncn2c1c(O)nc1ccc(Br)cc12)c1ccccc1,8.76 µM (active)

# Test system: not listed separately
# Test: loss of viability in HepG2 cells – cell-based, CellTiter-Glo, cherry-picked, cytotoxicity control for Shn3 inhibitor project, dose response (AID 624134)
# Format: functional
# Settings: not given
row,SMILES,AC50
1,O=C(NNC(=O)c1cccc(S(=O)(=O)N2CCc3ccccc32)c1)c1ccccc1,46.2 µM (active)
2,CC1C(=O)N(Cc2cn(CCC3OCCCO3)nn2)CCS(=O)(=O)N1Cc1ccc(-c2ccc(Cl)c(Cl)c2)cc1 (centres undefined),> 70 µM (inactive)
3,C[C@H](NC(=O)c1ncn2c1c(O)nc1ccc(Br)cc12)c1ccccc1,9.3 µM (active)

# Target: T1, Corticotropin-releasing factor receptor 2/Corticotropin-releasing factor-binding protein
# Test: activators of CRF receptor 2 with binding protein – uHTS hits, confirmation (AID 602473)
# Format: functional
# Settings: read-out: EC50_Mean
row,EC50,SMILES
1,> 53 µM (inactive),CC(=O)Nc1ccc(S(=O)(=O)N2CCN(c3nnnn3-c3ccccc3)CC2)cc1
2,> 53 µM (inactive),Cc1c(N2C(=O)C3C4C=CC(C5CC45)C3C2=O)c(=O)n(-c2ccccc2)n1C (centres undefined)
3,> 53 µM (inactive),Cc1ccc(CN(C)C(=O)CCc2c[nH]c3ccccc23)o1
4,> 53 µM (inactive),COc1ccc(C)cc1S(=O)(=O)N1CCN(S(=O)(=O)c2cc(C)ccc2OC)CC1
5,> 53 µM (inactive),COC(=O)C1=C(C)N(C)C(C)=C(C(=O)OC)C1c1ccc(F)c(Br)c1

# Test system: not listed separately
# Test: non-specific 3'UTR reporter inhibition in Clone20-Shn3RL – cell-based, Renilla luciferase, cherry-picked, counter-screen for Shn3 inhibitor project, dose response (AID 624133)
# Format: functional
# Settings: not given
row,SMILES,AC50
1,O=C(NNC(=O)c1cccc(S(=O)(=O)N2CCc3ccccc32)c1)c1ccccc1,3.89 µM (active)
2,CC(=O)N1CCN(C(=O)CCc2cc(C(C)(C)C)c(O)c(C(C)(C)C)c2)CC1,14.5 µM (active)
3,CC1C(=O)N(Cc2cn(CCC3OCCCO3)nn2)CCS(=O)(=O)N1Cc1ccc(-c2ccc(Cl)c(Cl)c2)cc1 (centres undefined),2.7 µM (active)
4,C[C@H](NC(=O)c1ncn2c1c(O)nc1ccc(Br)cc12)c1ccccc1,16.2 µM (active)
